Measurements taken from ChEMBL document CHEMBL3865802, “Natural product-inspired rational design, synthesis and biological evaluation of 2,3-dihydropyrano[2,3-f]chromen-4(8H)-one based hybrids as potential mitochondrial apoptosis inducers” (Eur J Med Chem, 2016).
pIC50: −log10 of the molar value.

Experiment: Cytotoxicity against human MCF7 cells assessed as cell growth inhibition after 24 hrs by MTT assay
Format: functional, cell-based
Conditions: MCF7, 24 h

SMILES | pIC50
COc1cc2c(cc1OC)[C@@H]1C(=O)c3ccc4c(c3O[C@@H]1CO2)C=CC(C)(C)O4 [DEGUELIN] | 4.98
COc1cc(-c2nnc(NC(=O)c3cc4c(c5c3OC(C)(C)C=C5)OC(C)C(C)C4=O)s2)cc(OC)c1OC (centres undefined) | 4.15
CC1Oc2c(cc(C(=O)Nc3nnc(-c4ccncc4)s3)c3c2C=CC(C)(C)O3)C(=O)C1C (centres undefined) | 4.24
c1ccc([C@H]2CN3CCSC3=N2)cc1 [LEVAMISOLE] | < 4.00
CC1Oc2c(cc(C(=O)Nc3nnc(-c4cccs4)s3)c3c2C=CC(C)(C)O3)C(=O)C1C (centres undefined) | 4.11
CC1Oc2c(cc(C(=O)O)c3c2C=CC(C)(C)O3)C(=O)C1C (centres undefined) | 4.05
CC1Oc2c(cc(C(=O)Nc3nccs3)c3c2C=CC(C)(C)O3)C(=O)C1C (centres undefined) | 4.12

Experiment: Cytotoxicity against human HeLa cells assessed as cell growth inhibition after 24 hrs by MTT assay
Format: functional, cell-based
Conditions: not given

SMILES | pIC50
COc1cc(-c2nnc(NC(=O)c3cc4c(c5c3OC(C)(C)C=C5)OC(C)C(C)C4=O)s2)cc(OC)c1OC (centres undefined) | 4.01
CC1Oc2c(cc(C(=O)Nc3nnc(-c4ccncc4)s3)c3c2C=CC(C)(C)O3)C(=O)C1C (centres undefined) | 4.13
c1ccc([C@H]2CN3CCSC3=N2)cc1 [LEVAMISOLE] | 4.02
CC1Oc2c(cc(C(=O)Nc3nnc(-c4cccs4)s3)c3c2C=CC(C)(C)O3)C(=O)C1C (centres undefined) | 4.03
CC1Oc2c(cc(C(=O)O)c3c2C=CC(C)(C)O3)C(=O)C1C (centres undefined) | 3.99
CC1Oc2c(cc(C(=O)Nc3nccs3)c3c2C=CC(C)(C)O3)C(=O)C1C (centres undefined) | 4.08

Experiment: Cytotoxicity against human A549 cells assessed as cell growth inhibition after 24 hrs by MTT assay
Format: functional, cell-based
Conditions: A549, 24 h

SMILES | pIC50
COc1cc(-c2nnc(NC(=O)c3cc4c(c5c3OC(C)(C)C=C5)OC(C)C(C)C4=O)s2)cc(OC)c1OC (centres undefined) | 4.10
CC1Oc2c(cc(C(=O)Nc3nnc(-c4ccncc4)s3)c3c2C=CC(C)(C)O3)C(=O)C1C (centres undefined) | 4.12
c1ccc([C@H]2CN3CCSC3=N2)cc1 [LEVAMISOLE] | < 4.00
CC1Oc2c(cc(C(=O)Nc3nnc(-c4cccs4)s3)c3c2C=CC(C)(C)O3)C(=O)C1C (centres undefined) | 4.13
CC1Oc2c(cc(C(=O)O)c3c2C=CC(C)(C)O3)C(=O)C1C (centres undefined) | 3.94
CC1Oc2c(cc(C(=O)Nc3nccs3)c3c2C=CC(C)(C)O3)C(=O)C1C (centres undefined) | 4.19
